How the values were obtained:
[1] = test system: non-transgenic soybean line A4922; test: Field trial of seed coatings under soil compaction / different soils, wild-type soybean; type: in vivo, Glycine max; settings: for Count (emergence) / Height (total plant height): A4922; for plant height dose/response in wild-type line A4922 (FIG. 40): ten days after planting
Description: The second trial (data reported in Tables 22-24) tested the precursors under conditions of soil compaction.
As noted above, the second trial tested the noted precursors under conditions of soil compaction. These experiments are performed in the same manner as in the first trial, except that the soil is compacted with an all-terrain vehicle.
“Height” equals total plant height in cm.

[2] = Half-lives of 14C-labelled GA compounds in planta; settings: ^14C-labelled compound on seed of Asgrow 3237 soybeans
Description: ^14C-radiolabelled compounds are obtained from Lew Mander (Australian National University). ^14C-GA3 is dissolved in water:ethanol, 80:20, v/v; ^14C-GA9 and ^14C-GA12 are dissolved in 100% ethanol. Seeds of Asgrow 3237 soybeans are treated separately with solutions of each of the ^14C-radiolabelled compounds (1.7-6.8 μg; 10-40 ppm; 111,000-2,000,000 dpm/seed) by placing one to four μl of the dosing solution directly on the seed coat (^14C-GA3, GA9, and GA12), or on the hilum portion of the seed (^14C-GA3). After evaporation of the carrier solvent (approx. one hour), the treated seed is planted in containers containing approximately 30 gm of Metromix-350, and transferred to a growth chamber. Plants are grown under a 12 hour light/12 hour dark regime at 92° F. (33° C.)and 75% humidity. The pattern of uptake and translocation of ^14C-radioactivity in treated seed is monitored up to 12 days past initial treatment. For most experiments, three replicate plants are harvested at one hour after treatment, one day after treatment (DAT), two DAT, three DAT, six or seven DAT, and 12 DAT. […] The level of ^14C-radioactivity in different plant parts is determined by extraction of plant tissues with aqueous methanol and scintillation counting. The extent of metabolism of the ^14C-labelled GA compounds in planta is determined by HPLC analysis of plant extracts. […]
The general extraction procedure consisted of blending the plant parts in a high speed polytron tissue homogenizer for 1-5 minutes with 10-20 ml of ice-cold methanol:water, 80:20, v/v, followed by vacuum filtration through a Whatman glass fiber filter. The filter cake is re-extracted as necessary using the procedure described above until an insignificant amount of radioactivity is removed. Prior to combining the extracts from each sample, aliquots are weighed and analyzed by liquid scintillation counting (LSC) to determine the amount of extracted radioactivity in each extract. Aliquots of the air-dried filter cakes are combusted and analyzed by LSC in order to determine the amount of non-extracted radioactivity. […]

[3] = test system: wild-type soybean line A4922; test: Field trial of seed coating application rates, wild-type soybean
Description: GA3, GA3-3-acetate, GA5, GA9, and GA12 are evaluated in further field trials. […] The objectives of these tests are: 1) to determine if seed coatings, as compared to imbibition, of GA compounds facilitate rescue of constitutively GA-deficient transgenic dwarf soybeans (transgenic lines 719−2 plus 719+17) without causing elongation of wild-type soybeans (line A4922), and 2) to determine the seed treatment rate ranges for each of the selected GA compounds that would provide rescue of constitutively GA-deficient transgenic dwarf soybeans (transgenic lines 719−2 plus 719+17) without causing elongation of wild-type soybeans (line A4922).
Seeds are treated with GA3, GA5, GA9, GA12, and GA3-3-acetate at rates of 0, 0.1, 1, 10, and 100 μg/seed. These GA compounds are applied to the seeds using a Hege 11 seed treater (Hans-Ulrich Hege GmbH & Co., Waldenburg, Germany); 100% acetone is used as the carrier solvent. The amount of liquid introduced into the seed treater is six fluid ounces/100 lbs seed rate. In addition, GA12 is tested at 50 μg/seed. The untreated control (UTC) consisted of dry, untreated seeds. Seeds of constitutively GA-deficient transgenic dwarf soybean line 719 and wild-type A4922 are sown in both light and heavy soil. The planting depth is 0.5 to 1 inch (1.27 to 2.54 cm); watering is via drip irrigation. The experiment is carried out in three repetitions, using 25 seeds/plot (one five foot (152.4 cm) long row) for line 719, and 75 seeds/plot (two eight foot (243.8 cm) rows) for line A4922. Observations included total emergence, number of dwarfs not rescued, uniformity in plant height, average plant height, visual notes, and digital photos.
In all the experiments reported in Tables 17-24, treatments are replicated three times in a randomized block design. Data are analyzed using LSD (least significant difference) 0.05 probability using the PRM 5.0 Statistical Analysis Program (SAS Institute, North Carolina).

[4] = Heavy soil - Loose, target rate 1.0 μg/seed, Table 23
[5] = Heavy soil - Loose, target rate 10.0 μg/seed, Table 23
[6] = Heavy soil - Loose, target rate 40.0 μg/seed, Table 23
[7] = Heavy soil - compacted, target rate 1.0 μg/seed, Table 23
[8] = Heavy soil - compacted, target rate 10.0 μg/seed, Table 23
[9] = Heavy soil - compacted, target rate 40.0 μg/seed, Table 23
[10] = Heavy soil - loose, target rate 40.0 μg/seed, Table 22
[11] = Light soil - Compacted, target rate 40.0 μg/seed, Table 22
[12] = Light soil - Loose, target rate 1.0 μg/seed, Table 24
[13] = Light soil - Loose, target rate 10.0 μg/seed, Table 24
[14] = Light soil - Loose, target rate 40.0 μg/seed, Table 24
[15] = Light soil - compacted, target rate 1.0 μg/seed, Table 24
[16] = Light soil - compacted, target rate 10.0 μg/seed, Table 24
[17] = Light soil - compacted, target rate 40.0 μg/seed, Table 24
[18] = Heavy soil - loose, target rate 2.0 μg/seed, Table 22
[19] = Heavy soil - loose, target rate 8.0 μg/seed, Table 22
[20] = Light soil - Compacted, target rate 2.0 μg/seed, Table 22
[21] = Light soil - Compacted, target rate 8.0 μg/seed, Table 22
[22] = Light soil - Loose, target rate 2.0 μg/seed, Table 24
[23] = Light soil - Loose, target rate 8.0 μg/seed, Table 24
[24] = Light soil - Loose, target rate 16.0 μg/seed, Table 24
[25] = Light soil - compacted, target rate 2.0 μg/seed, Table 24
[26] = Light soil - compacted, target rate 8.0 μg/seed, Table 24
[27] = Light soil - compacted, target rate 16.0 μg/seed, Table 24

C=C1C[C@]23C[C@H]1CC[C@H]2[C@]1(C)CCC[C@@](C)(C(=O)O)[C@H]1[C@@H]3C(=O)O [GA12]
Count (emergence) [1, 4]: 36.0 a | Height (total plant height) [1, 4]: 4.7e-15 g·cm | Count (emergence) [1, 5]: 26.7 b-c | Height (total plant height) [1, 5]: 4.0 g·cm | Count (emergence) [1, 6]: 33.0 ab | Height (total plant height) [1, 6]: 4.3 g·cm | Count (emergence) [1, 7]: 17.0 a | Height (total plant height) [1, 7]: 4.3 cde cm | Count (emergence) [1, 8]: 12.3 abc | Height (total plant height) [1, 8]: 3.7 e cm | Count (emergence) [1, 9]: 13.7 abc | Height (total plant height) [1, 9]: 4.0 de cm | Count (emergence) [1, 10]: 33 ab | Height (total plant height) [1, 10]: 4.3 g·cm | Count (emergence) [1, 11]: 41 a | Height (total plant height) [1, 11]: 4.3 g·cm | Count (emergence) [1, 12]: 43.7 abc | Height (total plant height) [1, 12]: 4.0 hi cm | Count (emergence) [1, 13]: 47.7 a | Height (total plant height) [1, 13]: 3.7 i cm | Count (emergence) [1, 14]: 44.0 abc | Height (total plant height) [1, 14]: 4.0 hi cm | Count (emergence) [1, 15]: 39.3 ab | Height (total plant height) [1, 15]: 4.3 g·cm | Count (emergence) [1, 16]: 41.7 a | Height (total plant height) [1, 16]: 4.0 g·cm | Count (emergence) [1, 17]: 41.0 a | Height (total plant height) [1, 17]: 4.3 g·cm | plant height dose/response in wild-type line A4922 (FIG. 40) ([1]; compacted soil): inhibited plant height | Half-life (days) in planta [2]: <1 days | A4922 Height, cm, Heavy soil ([3]; 0.1 μg compound per seed): 5.3 fg·cm | A4922 Height, cm, Light soil ([3]; 0.1 μg compound per seed): 5.7 f-i cm | No. A4922 Emerged, Heavy soil ([3]; 0.1 μg compound per seed): 24.3 g·days | No. A4922 Emerged, Light soil ([3]; 0.1 μg compound per seed): 45.7 c-h | A4922 Height, cm, Heavy soil ([3]; 1 μg compound per seed): 5.7 efg cm | A4922 Height, cm, Light soil ([3]; 1 μg compound per seed): 5.0 g-i cm | No. A4922 Emerged, Heavy soil ([3]; 1 μg compound per seed): 48.0 ab | No. A4922 Emerged, Light soil ([3]; 1 μg compound per seed): 55.7 ab | A4922 Height, cm, Heavy soil ([3]; 10 μg compound per seed): 5.0 fgh cm | A4922 Height, cm, Light soil ([3]; 10 μg compound per seed): 3.7 hij cm | No. A4922 Emerged, Heavy soil ([3]; 10 μg compound per seed): 19.0 fg | No. A4922 Emerged, Light soil ([3]; 10 μg compound per seed): 46.3 c-g | A4922 Height, cm, Heavy soil ([3]; 50 μg compound per seed): 2.7 hi cm | A4922 Height, cm, Light soil ([3]; 50 μg compound per seed): 3.0 ij cm | No. A4922 Emerged, Heavy soil ([3]; 50 μg compound per seed): 40.0 bcd | No. A4922 Emerged, Light soil ([3]; 50 μg compound per seed): 51.3 bcd | A4922 Height, cm, Heavy soil ([3]; 100 μg compound per seed): 2.3 i cm | A4922 Height, cm, Light soil ([3]; 100 μg compound per seed): 2.7 J·cm | No. A4922 Emerged, Heavy soil ([3]; 100 μg compound per seed): 38.7 bcd | No. A4922 Emerged, Light soil ([3]; 100 μg compound per seed): 53.0 bc

C=C1C[C@]23C[C@H]1CC[C@H]2[C@@]12CCC[C@@](C)(C(=O)O1)[C@H]2[C@@H]3C(=O)O [GA9]
Count (emergence) [1, 18]: 33 ab | Height (total plant height) [1, 18]: 5.3 g·cm·days | Count (emergence) [1, 19]: 29 a-d | Height (total plant height) [1, 19]: 6.3 cde cm | Count (emergence) [1, 20]: 38 abc | Height (total plant height) [1, 20]: 5.7 def cm | Count (emergence) [1, 21]: 22 de | Height (total plant height) [1, 21]: 6.0 de cm | Count (emergence) [1, 22]: 41.3 abc | Height (total plant height) [1, 22]: 5.0 gh cm | Count (emergence) [1, 23]: 39.3 bc | Height (total plant height) [1, 23]: 7.0 ef cm | Count (emergence) [1, 24]: 39.0 bc | Height (total plant height) [1, 24]: 8.0 de cm | Count (emergence) [1, 25]: 38.0 abc | Height (total plant height) [1, 25]: 5.7 def cm | Count (emergence) [1, 26]: 21.7 de | Height (total plant height) [1, 26]: 6.0 de cm | Count (emergence) [1, 27]: 20.0 de | Height (total plant height) [1, 27]: 8.3 c cm | emergence at approximately equivalent biological response (height) ([1]; compacted soil, FIG. 40): 93% | plant height dose/response in wild-type line A4922 (FIG. 40) ([1]; compacted soil): less active than GA3, GA3-3-acetate, and GA5 | Half-life (days) in planta [2]: <1 days | A4922 Height, cm, Heavy soil ([3]; 0.1 μg compound per seed): 5.7 efg cm | A4922 Height, cm, Light soil ([3]; 0.1 μg compound per seed): 5.7 f-i cm | No. A4922 Emerged, Heavy soil ([3]; 0.1 μg compound per seed): 41.0 a-d | No. A4922 Emerged, Light soil ([3]; 0.1 μg compound per seed): 48.3 b-e | A4922 Height, cm, Heavy soil ([3]; 1 μg compound per seed): 6.3 efg cm | A4922 Height, cm, Light soil ([3]; 1 μg compound per seed): 6.3 fgh cm | No. A4922 Emerged, Heavy soil ([3]; 1 μg compound per seed): 43.0 a-d | No. A4922 Emerged, Light soil ([3]; 1 μg compound per seed): 46.7 c-g | A4922 Height, cm, Heavy soil ([3]; 10 μg compound per seed): 6.7 efg cm | A4922 Height, cm, Light soil ([3]; 10 μg compound per seed): 7.3 fg·cm | No. A4922 Emerged, Heavy soil ([3]; 10 μg compound per seed): 26.3 g·days | No. A4922 Emerged, Light soil ([3]; 10 μg compound per seed): 46.0 c-h | A4922 Height, cm, Heavy soil ([3]; 100 μg compound per seed): 10.3 cm·days | No. A4922 Emerged, Heavy soil ([3]; 100 μg compound per seed): 28.3 c-g | No. A4922 Emerged, Light soil ([3]; 100 μg compound per seed): 40.0 f-i

From US6723897B2, “Methods for controlling gibberellin levels” (Monsanto Technology, LLC, priority 1998, dated 2004)
